# Test results taken from patent EP0293220B1, “Pharmacologically active 2-and 3-substituted (1', 5'-diaryl-3-pyrazolyl)-N-Hydroxypropanamides and method for synthesizing” (ORTHO PHARMACEUTICAL CORPORATION, priority 1987, dated 1988).
# Legend:
# Polyarthritis = Polyarthritis induced by Mycobacterium butyricum in rats: inhibition of paw volume increase after oral dosing; type: in vivo, Lewis strain laboratory rats; conditions: percent inhibition of paw volume increase
# Experimental: Polyarthritis was induced in Lewis strain laboratory rats (weight = about 200 grams) by injection of a suspension of Mycobacterium butyricum in mineral oil into the subplantar tissue of the mammal's hind paws. On day 10 after the injection, the rats were assigned to groups, and paw volumes and body weights were recorded. Paw volumes of the contralateral, uninjected hind paw were determined by mercury plethylsmography. Per oral (p.o.) dosing began and continued for five consecutive days thereafter. On day 14 after the initial injection, approximately four hours after the final dose was administered, paw volumes and body weights were recorded and quantitated.
# Anti-inflammatory activity of the N-hydroxypropanamide pyrazole compounds is expressed as the percent inhibition of paw volume increase.
# lipoxygenase = biological target: T1, lipoxygenase (Rattus norvegicus, UniProt P12527); assay: Ex vivo arachidonic acid metabolism of rat pleural exudate cells after oral dosing, lipoxygenase products (5-HETE, leukotriene B₄); type: in vivo, Sprague-Dawley rats; conditions: for inhibition at 30 mg/kg: 30 mpk; for ED50: oral dose, ex vivo rat pleural exudate cells, read-out: IC₅₀, p.o. Lipoxygenase
# T1 construct: endogenous in cells; host or cells: pleural exudate cells of carrageenan-treated Sprague-Dawley rats
# T1 sequence (P12527 1-673): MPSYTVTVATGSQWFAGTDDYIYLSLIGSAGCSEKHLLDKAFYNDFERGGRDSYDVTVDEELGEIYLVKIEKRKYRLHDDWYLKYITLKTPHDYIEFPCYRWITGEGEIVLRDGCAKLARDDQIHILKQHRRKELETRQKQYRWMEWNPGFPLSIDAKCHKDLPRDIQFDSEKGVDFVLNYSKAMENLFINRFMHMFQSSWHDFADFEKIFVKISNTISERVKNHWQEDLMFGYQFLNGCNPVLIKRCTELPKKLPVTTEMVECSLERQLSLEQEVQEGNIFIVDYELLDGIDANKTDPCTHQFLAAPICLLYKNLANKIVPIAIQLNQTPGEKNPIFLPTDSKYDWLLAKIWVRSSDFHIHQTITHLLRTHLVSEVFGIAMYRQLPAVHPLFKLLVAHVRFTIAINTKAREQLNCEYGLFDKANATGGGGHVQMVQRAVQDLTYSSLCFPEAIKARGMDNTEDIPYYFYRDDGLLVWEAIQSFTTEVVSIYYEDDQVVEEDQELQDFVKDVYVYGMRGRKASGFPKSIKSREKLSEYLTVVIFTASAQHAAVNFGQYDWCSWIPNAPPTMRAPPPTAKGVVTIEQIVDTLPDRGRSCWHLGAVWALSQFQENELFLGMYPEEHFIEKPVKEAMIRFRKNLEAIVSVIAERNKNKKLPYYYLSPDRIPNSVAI
# Experimental: This assay determines the ability of orally administered compounds to inhibit arachidonic acid metabolism with rat pleural exudate cells, via the lipoxygenase and/or cyclooxygenase enzymes. Sprague-Dawley rats (250 - 275 gm) are fasted overnight. The next morning, an acute inflammatory response is induced by the intra-thoracic injection of 1 ml of 0.25% carrageenan. Three hours later the rats are dosed orally with the test compounds at a screening dose of 16.5-30 mpk. Thirty minutes to one hour later the rats are sacrificed and pleural fluid harvested. The exudate fluids are diluted 1:5 using Hanks BSS and stimulated using 10 µg/ml calcium ionophore A-23187. The reaction is stopped after 15 minutes by the addition of 25 µl of 1N HCl, and the samples are centrifuged at 1000 g to sediment the cells. The supernate is extracted and applied to a C-18 HPLC column. The arachidonic acid metabolites 12-HHT (cyclooxygenase), 5-HETE, and leukotriene B₄ (lipoxygenase) are eluted using an acetonitrile methanol gradient and detected by UV absorption at 235 and 270 nm. The percent inhibition of the arachidonic acid metabolites is indicative of the anti-inflammatory activity of the tested compound and the results of this method for several compounds of the invention are listed in Table 13. The values shown are the percent inhibition at the dose indicated except for the those cases in which the IC₅₀ value is given.
# [1] = rat, po, exudate cells stimulated with 10 µg/ml calcium ionophore A-23187, read-out: %INH., p.o. Lipoxygenase (mpk)
smiles,measurement,setting,value
COc1ccc(-n2nc(C(O)c3ccc(C)cc3)cc2-c2ccc(C)cc2)cc1 (stereo not drawn) [Compound 92],"%INH., p.o. (mpk)",Polyarthritis; 10 mpk,27% @ 10
COc1ccc(-n2nc(C(O)c3ccc4ccccc4c3)cc2-c2ccc(C)cc2)cc1 (stereo not drawn) [Compound 94],"%INH., p.o. (mpk)",Polyarthritis; 10 mpk,29% @ 10
"COc1ccc(-c2cc(C(O)c3ccccc3)nn2-c2ccc(OC)cc2)cc1 (stereo not drawn) [Compound 105, [1,5-Bis(4-methoxyphenyl)-3-pyrazolyl]-1-phenylmethanol]","%INH., p.o. (mpk)",Polyarthritis; 15 mpk,49% @ 15
COc1ccc(-n2nc(C(=O)c3ccc(Cl)cc3)cc2-c2ccc(C)cc2)cc1 [Compound 108],"%INH., p.o. (mpk)",Polyarthritis; 10 mpk,25% @ 10
"COc1ccc(-n2nc(C(=O)c3ccc(C)cc3)cc2-c2ccc(C)cc2)cc1 [Compound 109, 1-(4-Methoxyphenyl)-3-(4-methylbenzoyl)-5-(4-methylphenyl)pyrazole]",inhibition at 30 mg/kg,lipoxygenase; [1],62%
"CCOC(=O)/C=C(/c1ccc(C)cc1)c1cc(-c2ccc(C)cc2)n(-c2ccc(OC)cc2)n1 [Compound 125, (Z)-Ethyl 3-[1(4-methoxyphenyl)-5-(4-methylphenyl)-3-pyrazolyl]-3-(4-methylphenyl)propenoate]",ED50,lipoxygenase,9 mg/kg
CCOC(=O)/C=C(/c1ccc(-c2ccccc2)cc1)c1cc(-c2ccc(C)cc2)n(-c2ccc(OC)cc2)n1 [Compound 132],inhibition at 16.5 mg/kg,"lipoxygenase; rat, po, 16.5 mpk, exudate cells stimulated with 10 µg/ml calcium ionophore A-23187, read-out: %INH., p.o. Lipoxygenase (mpk)",34%
CCOC(=O)CC(c1cc(-c2ccc(C)cc2)n(-c2ccc(OC)cc2)n1)c1cccc2ccccc12 (stereo not drawn) [Compound 150],inhibition at 30 mg/kg,lipoxygenase; [1],42%
"COc1ccc(-n2nc(/C(=C/C(=O)O)c3ccccc3)cc2-c2ccc(C)cc2)cc1 [Compound 155, (E)-3-[1-(4-Methoxyphenyl)-5-(4-methylphenyl)-3-pyrazolyl]-3-phenyl-2-propenoic acid]","%INH., p.o. (mpk)",Polyarthritis; 10 mpk,62% @ 10
"COc1ccc(-n2nc(/C(=C/C(=O)O)c3ccc(Cl)cc3)cc2-c2ccc(C)cc2)cc1 [Compound 157, (E)-3-(4-Chlorophenyl)-3-[1-(4-methoxyphenyl)-5-(4-methylphenyl)-3-pyrazolyl]propenoic acid]","%INH., p.o. (mpk)",Polyarthritis; 10 mpk,24% @ 10
"COc1ccc(-n2nc(/C(=C\C(=O)O)c3ccc(Cl)cc3)cc2-c2ccc(C)cc2)cc1 [Compound 158, (Z)-3-(4-Chlorophenyl)-3-[1-(4-methoxyphenyl)-5-(4-methylphenyl)-3-pyrazolyl]propenoic acid]",inhibition at 17.5 mg/kg,"lipoxygenase; rat, po, 17.5 mpk, exudate cells stimulated with 10 µg/ml calcium ionophore A-23187, read-out: %INH., p.o. Lipoxygenase (mpk)",53%
"COc1ccc(-n2nc(/C(=C/C(=O)N(C)O)c3ccc(F)cc3)cc2-c2ccc(C)cc2)cc1 [Compound 163, (E)-3-(4-Fluorophenyl)-N-hydroxy-3-[1-(4-methoxyphenyl)-5-(4-methylphenyl)-3-pyrazolyl]-N-methylpropenamide]",ED50,lipoxygenase,10 mg/kg
COc1ccc(-n2nc(/C(=C/C(=O)N(C)O)c3ccc(Cl)cc3)cc2-c2ccc(C)cc2)cc1 [Compound 164],"%INH., p.o. (mpk)",Polyarthritis; 10 mpk,22% @ 10
COc1ccc(-n2nc(/C(=C\C(=O)N(C)O)c3ccc(Cl)cc3)cc2-c2ccc(C)cc2)cc1 [Compound 165],inhibition at 30 mg/kg,lipoxygenase; [1],12%
COc1ccc(-n2nc(/C(=C/C(=O)N(C)O)c3ccc(-c4ccccc4)cc3)cc2-c2ccc(C)cc2)cc1 [Compound 168],inhibition at 30 mg/kg,lipoxygenase; [1],3%
